Data from patent US12398154B2, “Azaquinazoline pan-KRas inhibitors” (Mirati Therapeutics, Inc., priority 2020, dated 2025).

What was measured:
pERK in HCT116 cells = assay: Inhibition of KRas phosphorylation of ERK (Cisbio HTRF pERK assay); settings: Homo sapiens, HCT-116, read-out: Inhibition (HTRF IC50) of KRas-mediated Phosphorylation of ERK, HCT116
pERK in PSN1 cells = assay: as above; settings: Homo sapiens, PSN1, 3 h, read-out: Inhibition (HTRF IC50) of KRas-mediated Phosphorylation of ERK, PSN1
pERK in H460 cells = assay: as above; settings: Homo sapiens, NCI-H460, read-out: Inhibition (HTRF IC50) of KRas-mediated Phosphorylation of ERK, H460
Procedure: (§2) To harvest cells from flask using 0.05% Trypsin/EDTA solution. Add 10 mL of media to stop trypsinizing. Pipette the cells into a conical bottom 50 mL centrifuge tube and centrifuge 5 min×1000 rpm. • 2. Re-suspend the cell pellet in media, take a cell count, and then adjust the cell density using fresh media. • 3. Seed 6,000 cells into cell culture plate with 50 μL media. […] Incubate cell plate overnight in a 37° C., 5% CO2 incubator. • Compound titrations • 1. Use Tecan to complete the compound addition. Compounds start from 10 uM top, 3-fold dilution, and 10 doses. The final DMSO concentration is 0.8%. Dispensed 0.2 uM Trametinib as Min control. • 2. Incubate cell plate for 3 hrs in the incubator. • Detection with cisbio pERK HTRF kit • 1. […] At the end of the compound treatment, flick-off the media. • 3. Add 35 μL of lysis buffer per well using a Multidrop Combi. Then place on a plate agitator shaking at 300 rpm at 4° C. for 40 mins. • 4. Make up the HTRF antibody buffer. For each assay plate, mix 50 μL of d2-conjugate antibody with 950 μL of detection buffer. Similarly, mix 50 μL of Cryptate antibody with 950 μL of detection buffer. Then mix the two diluted antibodies together. • 5. Dispense 3.4 μL the antibody buffer to wells of an empty assay plate. Seal the plate and centrifuge plate 30 sec×1000 rpm. • 6. At the end of the 4° C. lysis, centrifuge the lysate plates 3 mins×1500 rpm. • 7. Use the Bravo to transfer 13.6 μL of lysate from cell culture plate to assay plate.
(§3) Then incubate assay plate for 2 hrs at room temperature. […] At the end of incubation, read plate on the Envision after centrifuging plate 30 sec× • 1000 rpm.

KRas G12V = KRas G12V (Homo sapiens, UniProt P01116, G12V); assay: biochemical;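 further: KRas binding measured by TR-FRET displacement at room temperature, IC50 fitted from percent of control values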
Procedure: (§4) The ability of a compound to bind to KRas was measured using a TR-FRET displacement assay. […] After a 60-minute incubation at room temperature, the reaction was measured using a BMG LABTECH CLARIO star Plus via TR-FRET. […] The POC values were fit to a 4-parameter IC50 equation and the IC50 value reported.

[1] = system: phospho-ERK in NCI-H727 (G12V) cells; assay: Inhibition of KRas-mediated phosphorylation of ERK (in-cell western); format: cell-based; settings: Homo sapiens, NCI-H727, 3 h, 3 hours compound, phospho-ERK normalized to GAPDH
Procedure, shortened: (§1)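 After a 3-hour incubation with diluted compound in 0.5% DMSO, cells are fixed, permeabilized and stained overnight at 4° C for phosphorylated ERK and GAPDH.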

[2] = system: phospho-ERK in AsPC-1 (G12D) cells; assay: as above; format: cell-based; settings: Homo sapiens, ASPC1, 3 h, 3 hours compound, phospho-ERK normalized to GAPDH
Procedure, shortened: as §1

[3] = system: phospho-ERK in NCI-H460 (Q61H) cells; assay: as above; format: cell-based; settings: Homo sapiens, NCI-H460, 3 h, 3 hours compound, phospho-ERK normalized to GAPDH
Procedure, shortened: as §1

[4] = system: phospho-ERK in MKN1 (WTdep) cells; assay: as above; format: cell-based; settings: Homo sapiens, MKN-1, 3 hours compound, phospho-ERK normalized to GAPDH
Procedure, shortened: as §1

KRas G12R = KRas G12R (Homo sapiens, UniProt P01116, G12R); assay: biochemical;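 further: TR-FRET displacement assay of compound binding to KRas, read after one hour at room temperature, potency from a four-parameter fit of percent-of-control values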
Procedure: as §4

pERK in H358 cells = assay: Inhibition of KRas phosphorylation of ERK (Cisbio HTRF pERK assay); settings: Homo sapiens, NCI-H358, read-out: Inhibition (HTRF IC50) of KRas-mediated Phosphorylation of ERK, H358
Procedure: as §2, §3

pERK in H727 cells = assay: as above; settings: Homo sapiens, NCI-H727, read-out: Inhibition (HTRF IC50) of KRas-mediated Phosphorylation of ERK, H727
Procedure: as §2, §3

pERK in ASPC1 cells = assay: as above; settings: Homo sapiens, ASPC1, read-out: Inhibition (HTRF IC50) of KRas-mediated Phosphorylation of ERK, AsPC-1
KRas G12D = KRas G12D (Homo sapiens, UniProt P01116, G12D); assay: biochemical;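 further: TR-FRET displacement binding assay on KRas, read after a one-hour incubation at room temperature, IC50 fitted from percent-of-control values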
Procedure: as §4

pERK in MKN1 cells = assay: Inhibition of KRas phosphorylation of ERK (Cisbio HTRF pERK assay); settings: Homo sapiens, MKN-1, 3 h, read-out: Inhibition (HTRF IC50) of KRas-mediated Phosphorylation of ERK, MKN1
KRas G12A = KRas G12A (Homo sapiens, UniProt P01116, G12A); assay: biochemical;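 further: binding to KRas measured by TR-FRET displacement after one hour at room temperature, IC50 from a four-parameter fit of percent-of-control values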
Procedure: as §4

KRas G12C = KRas G12C (Homo sapiens, UniProt P01116, G12C); assay: biochemical;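 further: binding to KRas assessed by TR-FRET displacement after one hour incubation at room temperature, potency fitted from percent-of-control values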
Procedure: as §4

pERK in A549 cells = assay: Inhibition of KRas phosphorylation of ERK (Cisbio HTRF pERK assay); settings: Homo sapiens, A549, read-out: Inhibition (HTRF IC50) of KRas-mediated Phosphorylation of ERK, A549
KRas G12S = KRas G12S (Homo sapiens, UniProt P01116, G12S); assay: biochemical;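 further: TR-FRET displacement binding to KRas, read after one hour incubation at room temperature, IC50 from four-parameter fit of percent of control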
Procedure: as §4

KRas WT = KRas WT (Homo sapiens, UniProt P01116); assay: biochemical;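 further: binding to KRas read as TR-FRET displacement after a one-hour room-temperature incubation, IC50 derived from percent-of-control values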
Sequence of KRas WT (P01116 1-169 isoform P01116-2): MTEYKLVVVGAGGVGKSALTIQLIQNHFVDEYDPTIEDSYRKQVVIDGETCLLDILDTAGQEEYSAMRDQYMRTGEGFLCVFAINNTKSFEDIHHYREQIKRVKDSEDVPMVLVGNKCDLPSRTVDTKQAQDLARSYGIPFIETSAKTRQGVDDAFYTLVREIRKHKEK
Procedure: as §4

Sequence of KRas G12R (P01116 1-169 isoform P01116-2 G12R): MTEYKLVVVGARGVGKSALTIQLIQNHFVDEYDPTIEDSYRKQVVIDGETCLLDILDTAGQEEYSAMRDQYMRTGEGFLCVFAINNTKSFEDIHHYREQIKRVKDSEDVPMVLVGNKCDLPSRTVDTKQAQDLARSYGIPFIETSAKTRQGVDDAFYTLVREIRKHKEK
Sequence of KRas G12D (P01116 1-169 isoform P01116-2 G12D): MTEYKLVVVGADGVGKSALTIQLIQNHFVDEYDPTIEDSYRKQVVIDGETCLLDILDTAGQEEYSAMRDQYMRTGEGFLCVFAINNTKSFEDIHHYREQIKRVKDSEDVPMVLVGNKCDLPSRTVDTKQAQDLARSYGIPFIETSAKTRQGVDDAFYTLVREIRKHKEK
Sequence of KRas G12V (P01116 1-169 isoform P01116-2 G12V): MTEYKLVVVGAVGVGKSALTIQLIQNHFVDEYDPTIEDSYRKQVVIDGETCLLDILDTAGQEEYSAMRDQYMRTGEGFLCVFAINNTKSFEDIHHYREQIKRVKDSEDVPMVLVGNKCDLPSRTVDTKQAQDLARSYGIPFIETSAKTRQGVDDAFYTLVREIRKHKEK
Sequence of KRas G12A (P01116 1-169 isoform P01116-2 G12A): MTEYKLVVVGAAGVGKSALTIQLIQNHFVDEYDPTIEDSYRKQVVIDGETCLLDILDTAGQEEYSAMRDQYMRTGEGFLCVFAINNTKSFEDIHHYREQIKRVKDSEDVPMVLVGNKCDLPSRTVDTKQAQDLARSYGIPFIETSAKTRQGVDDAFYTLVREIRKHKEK
Sequence of KRas G12S (P01116 1-169 isoform P01116-2 G12S): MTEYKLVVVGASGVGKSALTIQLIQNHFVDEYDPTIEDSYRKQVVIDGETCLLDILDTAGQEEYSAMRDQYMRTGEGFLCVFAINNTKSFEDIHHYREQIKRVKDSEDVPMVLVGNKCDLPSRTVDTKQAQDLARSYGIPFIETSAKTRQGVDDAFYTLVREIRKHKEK
Sequence of KRas G12C (P01116 1-169 isoform P01116-2 G12C): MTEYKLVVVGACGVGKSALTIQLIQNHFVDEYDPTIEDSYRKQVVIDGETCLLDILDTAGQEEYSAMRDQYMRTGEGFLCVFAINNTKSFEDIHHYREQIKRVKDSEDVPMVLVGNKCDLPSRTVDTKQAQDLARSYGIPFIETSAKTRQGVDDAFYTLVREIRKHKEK

| Compound | IC50 (pERK in HCT116 cells) [nM] | IC50 (pERK in PSN1 cells) [nM] | IC50 (pERK in H460 cells) [nM] | IC50 (KRas G12V) [nM] | IC50 [1] [nM] | IC50 [2] [nM] | IC50 [3] [nM] | IC50 [4] [nM] | IC50 (KRas G12R) [nM] | IC50 (pERK in H358 cells) [nM] | IC50 (pERK in H727 cells) [nM] | IC50 (pERK in ASPC1 cells) [nM] | IC50 (KRas G12D) [nM] | IC50 (pERK in MKN1 cells) [nM] | IC50 (KRas G12A) [nM] | IC50 (KRas G12C) [nM] | IC50 (pERK in A549 cells) [nM] | IC50 (KRas G12S) [nM] | IC50 (KRas WT) [nM] |
| --- | --- | --- | --- | --- | --- | --- | --- | --- | --- | --- | --- | --- | --- | --- | --- | --- | --- | --- | --- |
| CCc1c(F)ccc2cc(O)cc(-c3ncc4c(N5CCC[C@@](C)(O)C5)nc(OC[C@@]56CCCN5[C@@H](CO)CC6)nc4c3F)c12 [Example 301, (R)-1-(7-(8-ethyl-7-fluoro-3-hydroxynaphthalen-1-yl)-8-fluoro-2-(((3R,7aS)-3-(hydroxymethyl)tetrahydro-1H-pyrrolizin-7a(5H)-yl)methoxy)pyrido[4,3-d]pyrimidin-4-yl)-3-methylpiperidin-3-ol] | 456 | 3930 | 216 | ≤ 2 | 520 | 216 | 416 | 15 | ≤ 2 | 46 | 199 | 54 | ≤ 2 | 14 |  |  |  |  |  |
| C#Cc1c(F)ccc2cc(O)cc(-c3ncc4c(N5C[C@@H]6C[C@H](C5)[C@H](O)C6)nc(OC[C@@]56CCCN5C[C@H](F)C6)nc4c3F)c12 [Example 388, (1R,5R,6R)-3-(7-(8-ethynyl-7-fluoro-3-hydroxynaphthalen-1-yl)-8-fluoro-2-(((2R,7aS)-2-fluorohexahydro-1II-pyrrolizin-7a-yl)methoxy)pyrido[4,3-d]pyrimidin-4-yl)-3-azabicyclo[3,2,1]octan-6-ol] | 9 | 409 | 21 | ≤ 2 | 16 |  | 16 |  | ≤ 2 | 1 | 5 | 14 | ≤ 2 | 8 | ≤ 2 | ≤ 2 | 18 | ≤ 2 | ≤ 2 |
| CCc1c(F)ccc2cc(O)cc(-c3ncc4c(N5CCC[C@@]6(CNC(=O)N6)C5)nc(OC[C@@]56CCCN5C[C@H](F)C6)nc4c3F)c12 [Example 300, (R)-7-(7-(8-ethyl-7-fluoro-3-hydroxynaphthalen-1-yl)-8-fluoro-2-(((2R,7aS)-2-fluorohexahydro-1H-pyrrolizin-7a-yl)methoxy)pyrido[4,3-d]pyrimidin-4-yl)-1,3,7triazaspiro[4.5]decan-2-one] |  | 1380 |  | ≤ 2 | 372 | 251 | 71 | 37 | ≤ 2 | 14 | 89 | 38 | ≤ 2 | 7 |  |  |  |  |  |
| CCc1c(F)ccc2cc(O)cc(-c3ncc4c(N5CCOC[C@@](C)(O)C5)nc(OCC5(CN6CCCC6)CC5)nc4c3F)c12 [Example 321, (S)-4-(7-(8-ethyl-7-fluoro-3-hydroxynaphthalen-1-yl)-8-fluoro-2-((1-(pyrrolidin-1-ylmethyl)cyclopropyl)methoxy)pyrido[4,3-d]pyrimidin-4-yl)-6-methyl-1,4-oxazepan-6-ol] | 39 | 7760 | 71 | ≤ 2 |  |  |  |  | ≤ 2 | 7 | 30 | 16 | ≤ 2 | 3 | ≤ 2 | ≤ 2 | 99 | ≤ 2 | ≤ 2 |
| CCc1c(F)ccc2cc(O)cc(-c3ncc4c(N5CCCCCC5)nc(OC[C@@]56CCCN5C[C@H](F)C6)nc4c3F)c12 [Example 317, 4-(4-(azepan-1-yl)-8-fluoro-2-(((2R,7aS)-2-fluorohexahydro-1H-pyrrolizin-7a-yl)methoxy)pyrido[4,3-d]pyrimidin-7-yl)-5-ethyl-6-fluoronaphthalen-2-ol] | 98 | 3930 | 287 | ≤ 2 |  |  |  |  | ≤ 2 | 985 | 46 | 40 | ≤ 2 | 20 | ≤ 2 | ≤ 2 | 197 | ≤ 2 | ≤ 2 |
| CCc1c(F)ccc2cc(O)cc(-c3ncc4c(N5CCCCCC(S(C)(=O)=O)C5)nc(OC[C@@]56CCCN5C[C@H](F)C6)nc4c3F)c12 (stereo partly drawn) [Example 309, 5-ethyl-6-fluoro-4-(8-fluoro-2-(((2R,7aS)-2-fluorohexahydro-1H-pyrrolizin-7a-yl)methoxy)-4-(3-(methylsulfonyl)azocan-1-yl)pyrido[4,3-d]pyrimidin-7-yl)naphthalen-2-ol] | 26 | 8330 | 57 | ≤ 2 | 272 | 176 | 59 |  | 3 | 26 | 37 | 54 | 4 | 2 |  |  | 113 |  |  |
| CCc1c(F)ccc2cc(O)cc(-c3ncc4c(N5CCCn6nc(C(=O)N(C)C)cc6C5)nc(OC[C@@]56CCCN5C[C@H](F)C6)nc4c3F)c12 [Example 326, 5-(7-(8-ethyl-7-fluoro-3-hydroxynaphthalen-1-yl)-8-fluoro-2-(((2R,7aS)-2-fluorohexahydro-1H-pyrrolizin-7a-yl)methoxy)pyrido[4,3-d]pyrimidin-4-yl)-N,N-dimethyl-5,6,7,8-tetrahydro-4H-pyrazolo[1,5-a][1,4]diazepine-2-carboxamide] | 274 | ≥ 10000 | 253 | ≤ 2 |  |  |  |  | ≤ 2 | 18 | 26 | 10 | ≤ 2 | 8 | ≤ 2 | ≤ 2 | 138 | ≤ 2 | ≤ 2 |
| CCc1c(F)ccc2cc(O)cc(-c3ncc4c(N5CCC[C@@](C)(O)C5)nc(OC[C@@]56CCCN5[C@H](COC(=O)N(C)C)CC6)nc4c3F)c12 [Example 314, ((3S,7aS)-7a-(((7-(8-ethyl-7-fluoro-3-hydroxynaphthalen-1-yl)-8-fluoro-4-((R)-3-hydroxy-3-methylpiperidin-1-yl)pyrido[4,3-d]pyrimidin-2-yl)oxy)methyl)hexahydro-1H-pyrrolizin-3-yl)methyl dimethylcarbamate] | 21 | 407 | 14 | ≤ 2 |  |  |  |  | ≤ 2 | 2 | 21 | 9 | ≤ 2 | 3 | ≤ 2 | ≤ 2 | 19 | ≤ 2 | ≤ 2 |
| CCc1c(F)ccc2cc(O)cc(-c3ncc4c(N5CCCC(O)(C(F)F)C5)nc(OC[C@@]56CCCN5C[C@H](F)C6)nc4c3F)c12 (some centres unmarked) [Example 184] | 91 | 1230 | 39 | ≤ 2 | 201 | 66 | 30 |  | 3 | 15 | 90 | 7 | ≤ 2 | 7 |  |  | 44 |  |  |
